Test results as given in patent US20150105252A1, “SUBSTITUTED PYRAZOLES AS HERBICIDES” (E I DU PONT DE NEMOURS AND COMPANY, priority 2013, published 2015).

Legend:
ducksalad = assay: Test B flood; format: in vivo, Heteranthera limosa; settings: 250 g ai/ha, visual rating on 0 to 100 scale (0 no effect, 100 complete control), 13 to 15 days
In short: (§1)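 Greenhouse assay lasting 13 to 15 days. Treatment was into water flooding pots 3 cm deep, at the 2-leaf stage, with that level sustained afterwards. Scores compare treated with control plants visually, 100 denoting complete control and 0 no effect; a dash marks no test result.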

galium = assay: Test A postemergence; format: in vivo, Galium aparine
Text: (§2) Seeds of plant species selected from barnyardgrass (Echinochloa crus-galli), kochia (Kochia scoparia), common ragweed (Ambrosia elation), Italian ryegrass (Lolium multiflorum), crabgrass, large (large crabgrass, Digitaria sanguinalis), foxtail, giant (giant foxtail, Setaria faberii), morningglory (Ipomoea spp.), pigweed (redroot pigweed, Amaranthus retroflexus), velvetleaf (Abutilon theophrasti), wheat (Triticum aestivum), and corn (Zea mays) were planted into a blend of loam soil and sand and treated preemergence with a directed soil spray using test chemicals formulated in a non-phytotoxic solvent mixture which included a surfactant.
(§3) At the same time, plants selected from these crop and weed species and also blackgrass (Alopecurus myosuroides), and galium (catchweed bedstraw, Galium aparine) were planted in pots containing the same blend of loam soil and sand and treated with postemergence applications of test chemicals formulated in the same manner. Plants ranged in height from 2 to 10 cm and were in the one- to two-leaf stage for the postemergence treatment. Treated plants and untreated controls were maintained in a greenhouse for approximately 10 days, after which time all treated plants were compared to untreated controls and visually evaluated for injury. Plant response ratings, summarized in Table A, are based on a 0 to 100 scale where 0 is no effect and 100 is complete control. A dash (-) response means no test result.

barnyardgrass [1] = assay: Test A preemergence; format: in vivo, Echinochloa crus-galli; settings: preemergence; for Barnyardgrass plant response rating (0 to 100 scale, 0 is no effect, 100 is complete control): visual injury approx. 10 days after treatment
In short: (§4)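 Visual injury ratings, 0 = no effect to 100 = complete control, taken about 10 days after treatment against untreated controls. Test chemicals, in a non-phytotoxic surfactant-containing solvent, were sprayed onto soil preemergence or onto one- to two-leaf plants (2–10 cm) postemergence, in loam–sand soil under greenhouse conditions.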

kochia [2] = assay: Test A preemergence; format: in vivo, Kochia scoparia; settings: for Kochia plant response rating (0 to 100 scale): visual injury approx. 10 days after treatment
Text: as §2, §3

Italian ryegrass [3] = assay: Test A preemergence; format: in vivo, Lolium multiflorum; settings: for Italian Ryegrass plant response rating (0 to 100 scale): visual injury approx. 10 days after treatment
Text: as §2, §3

Italian ryegrass [4] = assay: Test A postemergence; format: in vivo, Lolium multiflorum
In short: as §4

common ragweed [5] = assay: Test A postemergence; format: in vivo, Ambrosia elation
In short: as §4

rice = assay: Test B flood; format: in vivo, Oryza sativa; settings: 250 g ai/ha, visual rating on 0 to 100 scale (0 no effect, 100 complete control), 13 to 15 days
In short: as §1

corn = assay: Test A postemergence; format: in vivo, Zea mays
In short: as §4

foxtail, giant [6] = assay: Test A preemergence; format: in vivo, Setaria faberii; settings: preemergence; for Foxtail, Giant plant response rating (0 to 100 scale): visual injury approx. 10 days after treatment
In short: as §4

pigweed [7] = assay: Test A postemergence; format: in vivo, Amaranthus retroflexus
In short: as §4

kochia [8] = assay: Test A postemergence; format: in vivo, Kochia scoparia
Text: as §2, §3

barnyardgrass [9] = assay: Test B flood; format: in vivo, Echinochloa crus-galli; settings: 250 g ai/ha, visual rating on 0 to 100 scale (0 no effect, 100 complete control), 13 to 15 days
In short: as §1

foxtail, giant [10] = assay: Test A postemergence; format: in vivo, Setaria faberii
In short: as §4

wheat = assay: Test A postemergence; format: in vivo, Triticum aestivum
In short: as §4

common ragweed [11] = assay: Test A preemergence; format: in vivo, Ambrosia elation; settings: for Common Ragweed plant response rating (0 to 100 scale): visual injury approx. 10 days after treatment
In short: as §4

barnyardgrass [12] = assay: Test A postemergence; format: in vivo, Echinochloa crus-galli
In short: as §4

pigweed [13] = assay: Test A preemergence; format: in vivo, Amaranthus retroflexus; settings: preemergence; for Pigweed plant response rating (0 to 100 scale): visual injury approx. 10 days after treatment
In short: as §4

blackgrass = assay: Test A postemergence; format: in vivo, Alopecurus myosuroides
In short: as §4

sedge, umbrella = assay: Test B flood; format: in vivo, Cyperus difformis; settings: 250 g ai/ha, visual rating on 0 to 100 scale (0 no effect, 100 complete control), 13 to 15 days
In short: as §1

[14] = Postemergence, 125 g ai/ha, 0 to 100 scale, 0 no effect, 100 complete control
[15] = Postemergence, 500 g ai/ha, 0 to 100 scale (0 no effect, 100 complete control)
[16] = 500 g ai/ha, visual injury after approx. 10 days, 0 to 100 scale (0 no effect, 100 complete control)
[17] = postemergence, 125 g ai/ha, about 10 days, visual rating on 0 to 100 scale (0 no effect, 100 complete control)
[18] = 125 g ai/ha, visual injury, 0 to 100 scale, approx. 10 days

| SMILES | Plant response rating, Ducksalad (ducksalad) | Galium plant response rating (galium; [14]) | Galium plant response rating (galium; [15]) | Barnyardgrass plant response rating (0 to 100 scale, 0 is no effect, 100 is complete control) (barnyardgrass [1]; 125 g ai/ha) | Barnyardgrass plant response rating (barnyardgrass [1]; [16]) | Italian Ryegrass plant response rating (Italian ryegrass [3]; [16]) | Italian Ryegrass plant response rating (Italian ryegrass [4]; [15]) | Common Ragweed plant response rating (common ragweed [5]; [15]) | Plant response rating, Rice (rice) | Corn plant response rating (corn; [15]) | Foxtail, Giant plant response rating (foxtail, giant [6]; [16]) | Pigweed plant response rating (pigweed [7]; [15]) | Kochia plant response rating (kochia [8]; [15]) | Plant response rating, Barnyardgrass (barnyardgrass [9]) | Foxtail, Giant plant response rating (foxtail, giant [10]; [15]) | Wheat plant response rating (wheat; [15]) | Common Ragweed plant response rating (common ragweed [11]; [16]) | Barnyardgrass plant response rating (barnyardgrass [12]; [15]) | Blackgrass plant response rating (blackgrass; [15]) | Plant response rating, Sedge, Umbrella (sedge, umbrella) | further results |
| --- | --- | --- | --- | --- | --- | --- | --- | --- | --- | --- | --- | --- | --- | --- | --- | --- | --- | --- | --- | --- | --- |
| CCONC(=O)c1cc(CC)n(Cc2cc(C(F)(F)F)nn2C(C)C)n1 [Compound 208] | 0 | 20 | 50 | 0 | 10 | 10 | 0 | 20 | 0 | 10 | 30 | 80 | 50 | 0 | 10 | 0 | 10 | 10 | 10 | 0 | Kochia plant response rating (0 to 100 scale) (kochia [2]; 125 g ai/ha): 10; Italian Ryegrass plant response rating (0 to 100 scale) (Italian ryegrass [3]; 125 g ai/ha): 0; Italian Ryegrass plant response rating (Italian ryegrass [4]; [14]): 0; Common Ragweed plant response rating (common ragweed [5]; [17]): 0; Corn plant response rating (corn; [17]): 0; Foxtail, Giant plant response rating (0 to 100 scale) (foxtail, giant [6]; 125 g ai/ha): 0; Pigweed plant response rating (pigweed [7]; [14]): 40; Kochia plant response rating (kochia [8]; [14]): 20; Foxtail, Giant plant response rating (foxtail, giant [10]; [17]): 0; Wheat plant response rating (wheat; [14]): 0; Common Ragweed plant response rating (0 to 100 scale) (common ragweed [11]; 125 g ai/ha): 0; Barnyardgrass plant response rating (barnyardgrass [12]; [17]): 0; Pigweed plant response rating (0 to 100 scale) (pigweed [13]; 125 g ai/ha): 20; Blackgrass plant response rating (blackgrass; [17]): 0 |
| CCc1cc(C(=O)NC2CC2)nn1Cc1cc(C(F)(F)F)no1 [Compound 124] | 30 |  | 80 |  | 100 | 20 | 30 | 30 | 20 | 40 | 100 | 100 | 90 | 10 | 90 | 0 | 40 | 70 | 60 | 20 | Galium plant response rating (galium; [17]): 10; Barnyardgrass plant response rating (barnyardgrass [1]; [18]): 0; Kochia plant response rating (kochia [2]; [18]): 20; Kochia plant response rating (kochia [2]; [16]): 90; Italian Ryegrass plant response rating (Italian ryegrass [3]; [18]): 0; Italian Ryegrass plant response rating (Italian ryegrass [4]; [17]): 10; Common Ragweed plant response rating (common ragweed [5]; [17]): 20; Corn plant response rating (corn; [17]): 10; Foxtail, Giant plant response rating (foxtail, giant [6]; [18]): 20; Pigweed plant response rating (pigweed [7]; [17]): 30; Kochia plant response rating (kochia [8]; [17]): 50; Foxtail, Giant plant response rating (foxtail, giant [10]; [17]): 0; Wheat plant response rating (wheat; [17]): 0; Common Ragweed plant response rating (common ragweed [11]; [18]): 10; Barnyardgrass plant response rating (barnyardgrass [12]; [17]): 0; Pigweed plant response rating (pigweed [13]; [18]): 20; Pigweed plant response rating (pigweed [13]; [16]): 100; Blackgrass plant response rating (blackgrass; [17]): 10 |
| CCc1cc(C(=O)NC2CC2)nn1Cc1cc(C(F)(F)F)nn1C(C)C [Compound 212] | 0 | 20 | 40 | 0 | 0 | 0 | 10 | 10 | 0 | 10 | 0 | 80 | 70 | 0 | 10 | 10 | 0 | 10 | 10 | 0 | Kochia plant response rating (0 to 100 scale) (kochia [2]; 125 g ai/ha): 0; Italian Ryegrass plant response rating (0 to 100 scale) (Italian ryegrass [3]; 125 g ai/ha): 0; Italian Ryegrass plant response rating (Italian ryegrass [4]; [14]): 0; Common Ragweed plant response rating (common ragweed [5]; [14]): 0; Corn plant response rating (corn; [14]): 0; Foxtail, Giant plant response rating (0 to 100 scale) (foxtail, giant [6]; 125 g ai/ha): 0; Pigweed plant response rating (pigweed [7]; [14]): 40; Kochia plant response rating (kochia [8]; [14]): 10; Foxtail, Giant plant response rating (foxtail, giant [10]; [14]): 0; Wheat plant response rating (wheat; [14]): 0; Common Ragweed plant response rating (0 to 100 scale) (common ragweed [11]; 125 g ai/ha): 0; Barnyardgrass plant response rating (barnyardgrass [12]; [14]): 0; Pigweed plant response rating (0 to 100 scale) (pigweed [13]; 125 g ai/ha): 20; Blackgrass plant response rating (blackgrass; [14]): 0 |
